Source: PubChem BioAssay (NCI)
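Values below derive from 48-hour exposures of cells grown in 96-well plates, with endpoints linearly interpolated between the two concentrations bracketing the appropriate inhibition level. At the TGI there is no net growth.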

Key:
Assay in all cases: NCI-60 cell line screen, 48 h
[1] = test system: SF-268 CNS
[2] = test system: U251 CNS
[3] = test system: SK-MEL-5 melanoma
[4] = test system: NCI-H23 lung
[5] = test system: TK-10 renal
[6] = test system: SW-620 colon
[7] = test system: CCRF-CEM leukemia
[8] = test system: BT-549 breast
[9] = test system: ACHN renal
[10] = test system: HOP-92 NSCLC
[11] = test system: HT29 colon
[12] = test system: SK-OV-3 ovarian

| SMILES | TGI [1] [µM] | TGI [2] [µM] | TGI [3] [µM] | TGI [4] [µM] | TGI [5] [µM] | TGI [6] [µM] | TGI [7] [µM] | TGI [8] [µM] | TGI [9] [µM] | TGI [10] [µM] | TGI [11] [µM] | TGI [12] [µM] |
| --- | --- | --- | --- | --- | --- | --- | --- | --- | --- | --- | --- | --- |
| COc1ccc(OC)c(NC(=O)C(=O)Nn2c(=S)[nH]c3ccccc3c2=O)c1 | > 100 | > 100 | > 100 | > 100 | > 100 | > 100 | > 100 | > 100 | > 100 | > 100 | > 100 | > 100 |
| Cc1cc(NC(=O)C(=O)Cc2cnc3ccccc3n2)c(S(=O)(=O)O)cc1Cl | > 100 | > 100 | > 100 | > 100 | > 100 | > 100 | > 100 | > 100 | > 100 | > 100 | > 100 | > 100 |
| CN(C)c1ccc(/C=C2\N=C(N/N=C/c3ccccc3)NC2=O)cc1 | > 100 | > 100 | > 100 | > 100 | > 100 | > 100 | > 100 | > 100 | > 100 | 79.1 | > 100 | > 100 |
